Like-named read-outs stand apart in the source and are kept apart here.
Legend:
Drosophila OR49b = target: T1, Drosophila OR49b (Drosophila melanogaster, UniProt Q9V6H2); experiment: cell-based; conditions: for activation at 1 µM / activation at 10 µM / activation at 100 µM: HEK293, read-out: OR49b response (VUAA1-normalized response); for Average response: mean of biological replicates
T1 construct: expressed in transfected cells
T1 sequence (Q9V6H2 1-375): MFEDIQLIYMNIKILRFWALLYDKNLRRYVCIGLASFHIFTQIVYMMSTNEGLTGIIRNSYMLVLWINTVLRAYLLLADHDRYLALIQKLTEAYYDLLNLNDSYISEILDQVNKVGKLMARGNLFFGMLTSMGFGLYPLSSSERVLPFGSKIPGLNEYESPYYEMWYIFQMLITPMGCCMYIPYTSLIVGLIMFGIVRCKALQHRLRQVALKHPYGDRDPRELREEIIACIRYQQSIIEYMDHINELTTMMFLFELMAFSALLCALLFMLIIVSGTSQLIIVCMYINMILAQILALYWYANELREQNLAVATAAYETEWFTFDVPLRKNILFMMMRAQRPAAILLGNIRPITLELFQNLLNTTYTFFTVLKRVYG
T1 sequence (Q9VNB5 1-486 partner): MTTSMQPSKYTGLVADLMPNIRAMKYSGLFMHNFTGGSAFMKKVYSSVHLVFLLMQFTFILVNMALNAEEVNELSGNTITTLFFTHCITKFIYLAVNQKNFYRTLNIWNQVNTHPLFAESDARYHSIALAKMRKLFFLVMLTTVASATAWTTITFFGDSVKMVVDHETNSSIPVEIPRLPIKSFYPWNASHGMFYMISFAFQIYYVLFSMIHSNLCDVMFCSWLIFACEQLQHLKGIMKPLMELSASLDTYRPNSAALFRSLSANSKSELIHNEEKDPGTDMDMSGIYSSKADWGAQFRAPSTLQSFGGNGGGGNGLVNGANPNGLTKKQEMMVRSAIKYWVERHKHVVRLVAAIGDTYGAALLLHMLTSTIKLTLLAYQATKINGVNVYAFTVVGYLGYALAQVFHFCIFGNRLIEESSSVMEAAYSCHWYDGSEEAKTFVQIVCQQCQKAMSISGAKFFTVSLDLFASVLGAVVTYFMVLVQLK
Outline: (§1)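 HEK293 lines stably expressing each Drosophila OR with GCaMP6, doxycycline-induced (1 μg/mL) 48 or 72 h. Fluorescence recorded 5 s baseline then 30 s after VOC injection at pH 7.3; ΔF=(FMAX−F0)/F0, normalized to 50 µM VUAA1 response per line, triplicate wells averaged; concentration series 0.01–100 μM.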

Drosophila OR71a = target: T2, Drosophila OR71a (Drosophila melanogaster, UniProt Q9VUK5); experiment: Calcium ion fluorescence (GCaMP6) assay, OR71a stable HEK293 cell line; format: cell-based; conditions: for activation at 1 µM / activation at 10 µM / activation at 100 µM: HEK293, read-out: OR71a response (VUAA1-normalized response); for Average response: VUAA1-normalized response, mean of biological replicates
T2 construct: expressed in transfected cells
T2 sequence (Q9VUK5 1-378): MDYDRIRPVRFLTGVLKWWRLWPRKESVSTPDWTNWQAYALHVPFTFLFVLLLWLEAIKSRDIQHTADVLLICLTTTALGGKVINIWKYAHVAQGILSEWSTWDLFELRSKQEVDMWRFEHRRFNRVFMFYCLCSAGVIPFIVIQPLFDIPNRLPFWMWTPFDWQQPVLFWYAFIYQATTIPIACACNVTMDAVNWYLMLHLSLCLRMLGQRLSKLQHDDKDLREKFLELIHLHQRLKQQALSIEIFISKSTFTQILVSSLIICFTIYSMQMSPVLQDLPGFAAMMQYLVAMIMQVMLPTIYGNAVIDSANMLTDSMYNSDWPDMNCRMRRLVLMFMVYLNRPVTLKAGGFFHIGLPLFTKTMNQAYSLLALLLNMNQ
T2 sequence (Q9VNB5 1-486 partner): T1 sequence (Q9VNB5 1-486 partner)
Outline: as §1

[1] = OR49b cell line, odorant cc. 1 µM
[2] = OR49b cell line, odorant cc. 10 µM
[3] = OR49b cell line, odorant cc. 100 µM
[4] = concentration 1, normalized fluorescence change, values below 0.05 threshold given as 0
[5] = concentration 10, normalized fluorescence change, values below 0.05 threshold given as 0
[6] = concentration 100, normalized fluorescence change, values below 0.05 threshold given as 0
[7] = ligand concentration 1 (unit not given), threshold 0.05, below shown as 0
[8] = ligand concentration 10 (unit not given), threshold 0.05, below shown as 0
[9] = ligand concentration 100 (unit not given), threshold 0.05, below shown as 0
[10] = ligand concentration 1 (unit not given), 0.05 threshold, values below shown as 0
[11] = ligand concentration 10 (unit not given), 0.05 threshold, values below shown as 0
[12] = ligand concentration 100 (unit not given), 0.05 threshold, values below shown as 0

| Compound | activation at 1 µM (Drosophila OR49b; VOC concentration 1 μM) [%] | activation at 10 µM (Drosophila OR49b; VOC concentration 10 μM) [%] | activation at 100 µM (Drosophila OR49b; VOC concentration 100 μM) [%] | Average response (Drosophila OR49b; [1]) | Average response (Drosophila OR49b; [2]) | Average response (Drosophila OR49b; [3]) | activation at 1 µM (Drosophila OR71a) [%] | activation at 10 µM (Drosophila OR71a) [%] | activation at 100 µM (Drosophila OR71a) [%] | Average response (Drosophila OR71a; OR71a cell line, cc. 1 µM) | Average response (Drosophila OR71a; OR71a cell line, cc. 10 µM) | Average response (Drosophila OR71a; OR71a cell line, cc. 100 µM) | DF norm AVERAGE OR71a (Drosophila OR71a; [4]) | DF norm AVERAGE OR71a (Drosophila OR71a; [5]) | DF norm AVERAGE OR71a (Drosophila OR71a; [6]) | DF norm AVERAGE OR49b (Drosophila OR49b) | DF norm AVERAGE OR49b (Drosophila OR49b; [7]) | DF norm AVERAGE OR49b (Drosophila OR49b; [8]) | DF norm AVERAGE OR49b (Drosophila OR49b; [9]) | DF norm AVERAGE OR71a (Drosophila OR71a; [7]) | also measured |
| --- | --- | --- | --- | --- | --- | --- | --- | --- | --- | --- | --- | --- | --- | --- | --- | --- | --- | --- | --- | --- | --- |
| CCCC(O)CC (stereo not shown) [3-hexanol] | 23 | 20 | 8 | 0.23 | 0.20 | 0.08 | 0 | 6 | 0 | 0.00 | 0.06 | 0.0155 | 0 | 0.06016 | 0 |  |  |  |  |  |  |
| C=C1CC/C=C(\C)CC[C@@H]2[C@@H]1CC2(C)C [(-)-trans-caryophyllene] | 0 | 0 | 0 | 0.00 | 0.00 | 0.00 | 0 | 0 | 0 | 0.0273 | 0.00 | 0.00 | 0 | 0 | 0 | 0 |  |  |  |  |  |
| C=CCc1ccc(O)c(OC)c1 [eugenol] | 0 | 0 | 0 | 0.05 | 0.00 | 0.00 | 0 | 0 | 0 | 0.00 | 0.0465 | 0.0247 |  |  |  |  | 0 | 0 | 0 | 0 | DF norm AVERAGE OR71a (Drosophila OR71a; [8]): 0; DF norm AVERAGE OR71a (Drosophila OR71a; [9]): 0 |
| CCCCC(C)O (stereo not shown) [2-hexanol] | 0 | 0 | 0 | 0.00 | 0.00 | 0.0161 | 0 | 0 | 0 | 0.00 | 0.00 | 0.0351 | 0 | 0 | 0 | 0 |  |  |  |  |  |
| CC(=O)OCC(C)C [isobutyl acetate] | 5 | 0 | 0 | 0.05 | 0.0342 | 0.00 | 0 | 0 | 0 | 0.038 | 0.0316 | 0.00 |  |  |  |  | 0.05093 | 0 | 0 | 0 | DF norm AVERAGE OR71a (Drosophila OR71a; [8]): 0; DF norm AVERAGE OR71a (Drosophila OR71a; [9]): 0 |
| CC/C=C/CCO [e3-hexenol] |  |  |  | 0.00 | 0.00 | 0.08 |  |  |  | 0.00 | 0.0432 | 0.0275 |  |  |  |  | 0 | 0 | 0.07888 | 0 | DF norm AVERAGE OR71a (Drosophila OR71a; [8]): 0; DF norm AVERAGE OR71a (Drosophila OR71a; [9]): 0 |
| CC1=CCC23CC1C(C)(C)C2CCC3C (stereo not drawn) [α-funebrene] |  |  |  | 0.00 | 0.00 | 0.00 |  |  |  | 0.00 | 0.00 | 0.00 |  |  |  |  |  |  |  |  | OR49b response (VUAA1-normalized) at 1 μM (Drosophila OR49b; OR49b cell line, VOC concentration 1 μM): 0.00; OR49b response (VUAA1-normalized) at 10 μM (Drosophila OR49b; OR49b cell line, VOC concentration 10 μM): 0.00; OR49b response (VUAA1-normalized) at 100 μM (Drosophila OR49b; OR49b cell line, VOC concentration 100 μM): 0.00; DF norm AVERAGE OR49b (Drosophila OR49b; [10]): 0; DF norm AVERAGE OR49b (Drosophila OR49b; [11]): 0; DF norm AVERAGE OR49b (Drosophila OR49b; [12]): 0; OR71a response (VUAA1-normalized) at 1 μM (Drosophila OR71a; OR71a cell line, VOC concentration 1 μM): 0.00; OR71a response (VUAA1-normalized) at 10 μM (Drosophila OR71a; OR71a cell line, VOC concentration 10 μM): 0.00; OR71a response (VUAA1-normalized) at 100 μM (Drosophila OR71a; OR71a cell line, VOC concentration 100 μM): 0.00; DF norm AVERAGE OR71a (Drosophila OR71a; [10]): 0; DF norm AVERAGE OR71a (Drosophila OR71a; [11]): 0; DF norm AVERAGE OR71a (Drosophila OR71a; [12]): 0 |
| CCCCCC(O)CC (stereo not shown) [3-octanol] | 0 | 7 | 5.5 | 0.00 | 0.07 | 0.055 | 0 | 0 | 0 | 0.0215 | 0.00 | 0.00 | 0 | 0 | 0 |  |  |  |  |  |  |
| CC1=CCC[C@@]2(C)[C@@H]3CC[C@]12CC3(C)C [(−)-α-neoclovene] |  |  |  | 0.00 | 0.00 | 0.00 |  |  |  | 0.00 | 0.00 | 0.0221 | 0 | 0 | 0 | 0 |  |  |  |  | OR49b response (VUAA1-normalized response) (Drosophila OR49b; VOC concentration 1 μM): 0.00; OR49b response (VUAA1-normalized response) (Drosophila OR49b; VOC concentration 10 μM): 0.00; OR49b response (VUAA1-normalized response) (Drosophila OR49b; VOC concentration 100 μM): 0.00; OR71a response (VUAA1-normalized response) (Drosophila OR71a; VOC concentration 1 μM): 0.00; OR71a response (VUAA1-normalized response) (Drosophila OR71a; VOC concentration 10 μM): 0.00; OR71a response (VUAA1-normalized response) (Drosophila OR71a; VOC concentration 100 μM): 0.00 |
| C=C1CC[C@H]2O[C@]2(C)CC[C@@H]2[C@@H]1CC2(C)C [(-)-caryophyllene oxide] | 0 | 0 | 0 | 0.00 | 0.00 | 0.00 | 0 | 0 | 7.44 | 0.00 | 0.00 | 0.0744 | 0 | 0 | 0.07441 | 0 |  |  |  |  |  |
| CCOC(=O)CC [ethyl propionate] | 0 | 0 | 0 | 0.00 | 0.00 | 0.0428 | 0 | 0 | 0 | 0.0185 | 0.00 | 0.00 |  |  |  |  | 0 | 0 | 0 | 0 | DF norm AVERAGE OR71a (Drosophila OR71a; [8]): 0; DF norm AVERAGE OR71a (Drosophila OR71a; [9]): 0 |
